The values that follow come from ChEMBL document CHEMBL4373645, “Recent development of leucyl-tRNA synthetase inhibitors as antimicrobial agents” (Medchemcomm, 2019).

One may read the IC50 as the midpoint of a concentration-inhibition curve. The term MIC denotes the lowest concentration found to suppress growth. A word on the Kd: it is a measure of binding affinity in units of concentration. A high value points to a looser complex.

The test system of one experiment is Trypanosoma brucei. Briefly: Inhibition of Trypanosoma brucei LeuRS assessed as residual activity at 100 uM incubated for 5 mins in presence of [14C]leucine by scintillation counting method relative to control.
The nature of experiment [1]: Inhibition of Trypanosoma brucei LeuRS presence of [14C]leucine by scintillation counting method.
Experiment [2] has as its system Mycobacterium tuberculosis. Briefly: Antitubercular activity against Mycobacterium tuberculosis H37Rv by time-kill assay. The experiment is classed as functional.
The target in a further experiment is Leucine--tRNA ligase (Escherichia coli (strain K12), UniProt P07813). Briefly: Binding affinity to Escherichia coli LeuRS.
Chain of Leucine--tRNA ligase (P07813 whole entry): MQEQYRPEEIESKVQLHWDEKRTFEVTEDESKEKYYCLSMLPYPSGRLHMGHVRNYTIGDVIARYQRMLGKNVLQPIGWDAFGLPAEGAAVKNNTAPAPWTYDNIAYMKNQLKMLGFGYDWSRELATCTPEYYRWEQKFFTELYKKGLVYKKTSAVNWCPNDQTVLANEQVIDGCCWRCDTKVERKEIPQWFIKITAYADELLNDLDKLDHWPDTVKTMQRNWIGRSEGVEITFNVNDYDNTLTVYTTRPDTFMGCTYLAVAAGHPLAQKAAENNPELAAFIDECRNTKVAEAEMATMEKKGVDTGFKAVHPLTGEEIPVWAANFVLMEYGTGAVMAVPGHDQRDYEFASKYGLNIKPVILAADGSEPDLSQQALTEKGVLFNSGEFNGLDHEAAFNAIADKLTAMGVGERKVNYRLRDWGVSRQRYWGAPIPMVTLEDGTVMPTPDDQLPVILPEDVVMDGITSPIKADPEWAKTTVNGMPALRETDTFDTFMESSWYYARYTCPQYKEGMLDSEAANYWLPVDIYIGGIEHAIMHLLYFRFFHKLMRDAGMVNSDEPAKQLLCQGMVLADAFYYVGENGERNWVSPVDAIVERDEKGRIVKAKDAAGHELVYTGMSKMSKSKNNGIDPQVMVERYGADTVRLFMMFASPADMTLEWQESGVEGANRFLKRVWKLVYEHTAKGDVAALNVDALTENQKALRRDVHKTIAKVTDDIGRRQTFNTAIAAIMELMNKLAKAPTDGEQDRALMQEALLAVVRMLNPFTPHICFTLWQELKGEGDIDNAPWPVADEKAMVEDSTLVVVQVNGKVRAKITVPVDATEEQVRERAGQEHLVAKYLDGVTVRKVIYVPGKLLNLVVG
The nature of experiment [3]: Inhibition of Trypanosoma brucei LeuRS preincubated for 20 mins followed by ATP addition measured after 15 mins in presence of [14C]leucine by scintillation counting method.
Experiment [4] can be described thus: Inhibition of human LeuRS after 10 mins in presence of [3H]leucine by scintillation counting method.
Experiment [5] in a line: Selectivity index, ratio of IC50 for human cytoplasmic LeuRS to IC50 for Trypanosoma brucei LeuRS.
The subject of the next experiment is Streptococcus pneumoniae. In words: Antibacterial activity against Streptococcus pneumoniae assessed as the reduction in bacterial growth incubated for 24 hrs by dilution antimicrobial susceptibility test. The experiment is classed as functional.

≈ marks a conversion by molar mass, not a printed value.

Take `O=c1nc(Nc2cc(Cl)ccc2O)cn[nH]1`: the Activity with Trypanosoma brucei amounted to 18%. Also, the IC50 in experiment [1] was 7.2 µM.

For the compound `OB1OCc2ccccc21` [BENZOXABOROLE], the lowest concentration to inhibit growth in experiment [2] (MIC) was 7.5 µg/mL (≈ 56 µM).

On Leucine--tRNA ligase, `Cc1cc(-c2cccc(S(=O)(=O)CC(=O)[C@@H](N)CC(C)C)c2)ncn1` had a Kd of 0.0014 µM.

With `Cc1n[nH]c(=O)nc1Nc1cc(Cl)ccc1O`, the Activity in the experiment on Trypanosoma brucei came out at 2.3%. Further, the IC50 in experiment [1] worked out at 7.6 µM.

As to `COc1ccc(C(=O)NC(=S)Nc2cccc(S(=O)(=O)NC(=O)[C@@H](N)CC(C)C)c2)cc1`, the IC50 was 5.6 µM in experiment [3] and 33.9 µM in experiment [4]. For the same compound, in experiment [5], the Ratio IC50 was in the range of 4.5 to 7.3.

As to `OB1OCc2ccc(C(O)c3ccccc3)cc21` (stereo not drawn), the MIC with Streptococcus pneumoniae came to 5 µg/mL (≈ 20.8 µM).

Consider `O=C(COc1ccc(Br)cc1Cl)NC(=S)Nc1cccc(S(=O)(=O)NC(=O)[C@H](Cc2ccccc2)NC(=O)OCc2ccccc2)c1`, for which the IC50 in experiment [3] was determined as 13.7 µM.

With `CC(C)C[C@H](N)C(=O)NS(=O)(=O)c1cccc(NC(=S)NC(=O)c2ccccc2)c1`, the IC50 in experiment [3] was found to be 7.6 µM; in experiment [4], 55.5 µM. Also, the Ratio IC50 in experiment [5] was in the range of 4.5 to 7.3.

Turning to `CC(C)C[C@H](NC(=O)OCc1ccccc1)C(=O)NS(=O)(=O)c1cccc(NC(=S)NC(=O)COc2ccc(Br)cc2Cl)c1`, in experiment [3], the IC50 is 16.7 µM.

As to `COc1cccc(C(=O)NC(=S)Nc2cccc(S(=O)(=O)NC(=O)[C@@H](N)CC(C)C)c2)c1`, the IC50 was determined as 6.7 µM in experiment [3] and 40 µM in experiment [4]. Besides, the Ratio IC50 in experiment [5] was 4.5 to 7.3.

Take `NS(=O)(=O)c1ccc(NC(=S)NC(=O)COc2ccc(Br)cc2Cl)cc1`: in experiment [3], the IC50 stood at 174 µM.

Regarding `CC(C)C[C@H](N)C(=O)NS(=O)(=O)c1cccc(NC(=S)NC(=O)COc2ccc(Br)cc2Cl)c1`, the IC50 worked out at 1.1 µM in experiment [3] and 4.9 µM in experiment [4]. Besides, the Ratio IC50 in experiment [5] fell in the range of 4.5 to 7.3.

Take `NCC1OB(O)c2ccccc21` (stereo not drawn): inhibition of growth in experiment [2] (MIC) required 1.8 µg/mL (≈ 11 µM).
